Measurements taken from US20250388623A1, “PEPTIDE INHIBITOR AND USE THEREOF” (CHENGDU BRILLIANT INSPIRATION BIOTHERAPEUTICS CO., LTD, priority 2022, published 2025).
Bridge positions count the residues as written; N and C are the ends. Peptide text beside a SMILES is read from it.

Test system: mouse lung fibrosis model induced by bleomycin (BLM)
Assay: Inflammatory and fibrotic pathology (HE, Masson's trichrome) in BLM mouse fibrosis model
Format: in vivo
Parameters: scale not given here
Conditions: for Inflammatory score Mean: 3 mg/kg intratracheal twice weekly x4 from Day 8, Day 21, HE staining, BLM model 2.25, negative control 0.36; for Fibrosis score Mean: 3 mg/kg intratracheal twice weekly x4 from Day 8, Day 21, Masson's trichrome, BLM model 3.25, negative control 1.01
Description: This Example was to assess the inhibitory effect of polypeptides on fibrotic pathology. 6- to 8-week-old male C57/6J mice weighing 18-20 g were used as subjects for the study. The experimental animals were randomized into groups, 6 animals in each group. On the day of modeling (Day 1), a single dose of 0.7 USP/kg of BLM solution was administered via the tracheal route to the BLM group and each peptide-treated group to induce the model. The negative control group received an equal volume of saline. Treatment dosing started on Day 8. Each peptide-treated group received the peptide drug intratracheally at a dosage of 3 mg/kg, while the positive control group received the peptide of SEQ ID NO: 50 at the same dosage, and the administration frequency was twice a week, with a total of 4 administrations. The BLM model group and the negative control group received an equal volume of solvent (saline) as a control. The procedure followed that described in Example 4.
On Day 21, the lung tissues were dissected, washed with saline to remove blood stains, and dried with gauze. Histopathological analysis was then performed on the dissected lung tissues. The lung tissues were perfused with 0.5 mL of paraformaldehyde via the trachea and placed in 4 mL of paraformaldehyde. A small amount of gauze was added to ensure the lung tissues were completely immersed in the fixative solution. The tissues were fixed for more than 24 hours. One lobe of the left lung and four lobes of the right lung were trimmed to the maximum coronal plane, placed in an embedding cassette, dehydrated overnight, and then paraffin-embedded to make 3 μm sections. An autostainer (Leica, model ST5010) was used for Hematoxylin (Herst, lot no. 201905)-Eosin (Chron, lot no.2018070301) (HE) staining, and MASSON'S trichrome (Celestineblue, Chron, lot no. MKCH8129; Aniline blue, Yuanye, lot no. H70J11S115483; Ponceau, Sigma, lot no. SHBM2047) staining. After mounting the sections, they were scanned using a digital panoramic scanner (Zhiyue, model WS-10). For each lung lobe, ≤10 visual fields were captured under a 20× magnification. The severity of inflammation and the severity of fibrosis were assessed using HE staining and Masson's trichrome staining, respectively, to evaluate the inhibitory effects of the polypeptides on inflammatory infiltration and fibrotic deposition at pathological fibrotic sites.

Compound | Inflammatory score Mean | Fibrosis score Mean
CC(=O)N[C@H](C(=O)N[C@H]1CSSC[C@@H](C(=O)O)NC(=O)[C@H](CC(N)=O)NC(=O)[C@H](CC(=O)O)NC(=O)[C@H](CCC(=O)O)NC(=O)[C@H](C)NC(=O)[C@H](CC(=O)O)NC1=O)[C@@H](C)O [SEQ ID NO: 43, Ac-Thr-cyclo[Cys-Asp-Ala-Glu-Asp-Asn-Cys]] (Ac-TCDAEDNC-OH; disulfide 2-8) | 1.46 | 2.59
Ac-TQDAEDN-NH2 [SEQ ID NO: 06, Ac-Thr-Gln-Asp-Ala-Glu-Asp-Asn-NH2] | 1.65 | 2.65
Ac-TQDAEDNTASH-NH2 [SEQ ID NO: 33, Ac-Thr-Gln-Asp-Ala-Glu-Asp-Asn-Thr-Ala-Ser-His-NH2] | 1.27 | 2.64
Ac-TQDAEDPTA-NH2 [SEQ ID NO: 22, Ac-Thr-Gln-Asp-Ala-Glu-Asp-Pro-Thr-Ala-NH2] | 1.43 | 2.33
Ac-TQDAEDPTAS-NH2 [SEQ ID NO: 25, Ac-Thr-Gln-Asp-Ala-Glu-Asp-Pro-Thr-Ala-Ser-NH2] | 1.39 | 2.47
Ac-TQDPEDNTAS-NH2 [SEQ ID NO: 26, Ac-Thr-Gln-Asp-Pro-Glu-Asp-Asn-Thr-Ala-Ser-NH2] | 0.95 | 2.05
